The text below walks through data of PubChem BioAssay AID330 (DTP/NCI, 2004).

The assay has as its system P388 leukemia ip, CD2F1 mice, survival T/C. As to the kind of experiment: NCI In Vivo Anticancer Drug Screen. Data for tumor model P388 Leukemia (intraperitoneal) in CD2F1 (CDF1) mice. Particulars: endpoint: median survival time, higher = longer survival. The method in brief:
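Mice carrying the transplanted tumor received test compound or vehicle. Survival was recorded in each group, and the value is the treated-group measurement divided by that of the vehicle-treated control group.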

[1] abbreviates: dose: 25.0 mg/kg/injection, schedule: Q01DX009 (ip), vehicle: Klucel (hydroxypropylcellulose) (HPC).
The mark [2] stands for this setting: dose: 100.0 mg/kg/injection, schedule: Q04DX003 (ip), vehicle: saline with Tween-80.
Setting [3] is: dose: 200.0 mg/kg/injection, schedule: Q04DX003 (ip), vehicle: saline with Tween-80.
The mark [4] stands for this setting: dose: 400.0 mg/kg/injection, schedule: Q04DX003 (ip), vehicle: saline with Tween-80.
Where [5] appears, read: dose: 25.0 mg/kg/injection, schedule: Q04DX003 (ip), vehicle: saline with Tween-80.
[6] abbreviates: dose: 60.0 mg/kg/injection, schedule: Q01DX005 (ip), vehicle: saline with Tween-80.
[7] abbreviates: dose: 120.0 mg/kg/injection, schedule: Q01DX005 (ip), vehicle: saline with Tween-80.

“And” between values parts separate entries of the source, which are not always exact repeats. Equal entries are not always repeated. Inconclusive results and toxic doses are left out.

Consider `O=C1N=C2OC3(CCCCC3)OC(=O)N2C2(CCCCC2)O1`, for which the T/C was 107 % of control (dose: 12.5 mg/kg/injection, schedule: Q01DX009 (ip), vehicle: distilled water + Tween-80); 93 % of control (dose: 25.0 mg/kg/injection, schedule: Q01DX009 (ip), vehicle: distilled water + Tween-80); 97 % of control (dose: 50.0 mg/kg/injection, schedule: Q01DX009 (ip), vehicle: distilled water + Tween-80); 100 % of control and 96 % of control (dose: 100.0 mg/kg/injection, schedule: Q01DX009 (ip), vehicle: distilled water + Tween-80); 109 % of control and 114 % of control (dose: 200.0 mg/kg/injection, schedule: Q01DX009 (ip), vehicle: distilled water + Tween-80).
On to `COC1=C(OC)C(=O)C(CO)=CC1=O`, for which the T/C is, setting by setting: (dose: 7.5 mg/kg/injection, schedule: Q01DX005 (ip), vehicle: saline) 104 % of control; (dose: 15.0 mg/kg/injection, schedule: Q01DX005 (ip), vehicle: saline) 87 % of control.
Take `CCCCCC(=O)C1C(c2ccc(C)cc2)CC(=O)C(CCCC)C1c1ccc(C)cc1` (stereo not given): the T/C runs as follows: (dose: 50.0 mg/kg/injection, schedule: Q01DX005 (ip), vehicle: saline with Tween-80) 93 % of control; (dose: 100.0 mg/kg/injection, schedule: Q01DX005 (ip), vehicle: saline with Tween-80) 93 % of control; (dose: 200.0 mg/kg/injection, schedule: Q01DX005 (ip), vehicle: saline with Tween-80) 93 % of control.
Take `CCCNc1nc2c(s1)c1c(O)c3c(O)c(C)c4c(c32)C(=O)C(C)(O/C=C\C(OC)C(C)C(OC(C)=O)C(C)C(O)C(C)C(O)C(C)/C=C/C=C(/C)C(=O)N1)O4` (stereo not given): the T/C runs as follows: under setting [1], 92 % of control; (dose: 50.0 mg/kg/injection, schedule: Q01DX009 (ip), vehicle: Klucel (hydroxypropylcellulose) (HPC)) 107 % of control; (dose: 100.0 mg/kg/injection, schedule: Q01DX009 (ip), vehicle: Klucel (hydroxypropylcellulose) (HPC)) 99 % of control; (dose: 200.0 mg/kg/injection, schedule: Q01DX009 (ip), vehicle: Klucel (hydroxypropylcellulose) (HPC)) 100 % of control.
Turning to `C/C(=C\C1C/C(=C/CCc2ccoc2)C(=O)O1)CCCc1ccoc1` (stereo not given), the T/C reads like this: (dose: 25.0 mg/kg/injection, schedule: Q01DX009 (ip), vehicle: saline + alcohol) 100 % of control; (dose: 50.0 mg/kg/injection, schedule: Q01DX009 (ip), vehicle: saline + alcohol) 107 % of control.
For the compound `O=S(=O)(C(Br)CBr)C(Br)CBr` (stereo not given), the T/C runs as follows: (dose: 6.25 mg/kg/injection, schedule: Q01DX009 (ip), vehicle: saline with Tween-80) 113 % of control; (dose: 12.5 mg/kg/injection, schedule: Q01DX009 (ip), vehicle: saline with Tween-80) 118 % of control; (dose: 25.0 mg/kg/injection, schedule: Q01DX009 (ip), vehicle: saline with Tween-80) 122 % of control.
As to `CC(Cl)CN(Cc1cc(O)c(CN(CC(C)Cl)CC(C)Cl)cc1O)CC(C)Cl` (stereo not given), the T/C (dose: 200.0 mg/kg/injection, schedule: Q04DX003 (ip), vehicle: Klucel (hydroxypropylcellulose) (HPC)) was 118 % of control.
As to `CCNC(=NC)c1ccc(NC(=O)c2ccc(C(=O)Nc3ccc(C(=NC)NCC)cc3)cc2)cc1`, the T/C (dose: 1.5 mg/kg/injection, schedule: Q04DX003 (ip), vehicle: saline with Tween-80) is 95 % of control; the T/C (dose: 3.0 mg/kg/injection, schedule: Q01DX009 (ip), vehicle: saline with Tween-80) is 172 % of control; the T/C (dose: 3.0 mg/kg/injection, schedule: Q04DX003 (ip), vehicle: saline with Tween-80) was 100 % of control; the T/C (dose: 6.0 mg/kg/injection, schedule: Q04DX003 (ip), vehicle: saline with Tween-80) was 109 % of control.
For the compound `c1ncn(Cn2cncn2)n1`, the T/C runs as follows: (dose: 60.0 mg/kg/injection, schedule: Q01DX005 (ip), vehicle: Klucel (hydroxypropylcellulose) (HPC)) 105 % of control; (dose: 120.0 mg/kg/injection, schedule: Q01DX005 (ip), vehicle: Klucel (hydroxypropylcellulose) (HPC)) 107 % of control; (dose: 240.0 mg/kg/injection, schedule: Q01DX005 (ip), vehicle: Klucel (hydroxypropylcellulose) (HPC)) 101 % of control.
`Cc1ccc2oc(-c3ccccc3)c(O)c(=O)c2c1`: the T/C under setting [2] is 100 % of control, the T/C under setting [3] was 108 % of control and the T/C under setting [4] is 95 % of control.
As to `NC(CP(=O)(O)O)C(=O)O` (stereo not given), the T/C is, setting by setting: (dose: 50.0 mg/kg/injection, schedule: Q01DX005 (ip), vehicle: saline) 106 % of control; (dose: 100.0 mg/kg/injection, schedule: Q01DX005 (ip), vehicle: saline) 101 % of control; (dose: 200.0 mg/kg/injection, schedule: Q01DX005 (ip), vehicle: saline) 91 % of control.
For `COc1ccc2c(c1)CCC1(C)C2=CC(=O)/C1=C\[O-].COc1ccc2c(c1)CCC1(C)C2=CC(=O)/C1=C\[O-].[Cu+2]` (stereo not given), the T/C was 90 % of control under setting [5]; 90 % of control (dose: 50.0 mg/kg/injection, schedule: Q04DX003 (ip), vehicle: saline with Tween-80); 86 % of control under setting [2].
Take `CCc1cccc(CC)c1NC(=O)c1ccccc1Br`: the T/C was 97 % of control under setting [6]; 96 % of control under setting [7]; 112 % of control (dose: 240.0 mg/kg/injection, schedule: Q01DX005 (ip), vehicle: saline with Tween-80).
In the case of `COc1ccc(OC)c(NCCCN2C(=O)c3ccccc3C2=O)c1`, the T/C was 90 % of control under setting [6] and 86 % of control under setting [7].
In the same order, the values of `CCOC(=O)/C(Cl)=C(\C)Nc1nc2c(ccc3ccccc32)s1` are 98 % of control and 90 % of control.
Turning to `O=C(O)c1cncc(C(=O)NCO)c1`, the T/C runs as follows: (dose: 12.5 mg/kg/injection, schedule: Q01DX009 (ip), vehicle: saline) 101 % of control; (dose: 25.0 mg/kg/injection, schedule: Q01DX009 (ip), vehicle: saline) 101 % of control and 91 % of control; (dose: 200.0 mg/kg/injection, schedule: Q01DX009 (ip), vehicle: saline) 99 % of control and 103 % of control and 91 % of control.
As for `COC(=O)c1ccc2c(c1)C(NC(C)=O)CCc1cc(OC)c(OC)c(OC)c1-2` (stereo not given), the T/C is 106 % of control (dose: 0.25 mg/kg/injection, schedule: Q01DX005 (ip), vehicle: saline); 99 % of control (dose: 0.5 mg/kg/injection, schedule: Q01DX005 (ip), vehicle: saline); 101 % of control (dose: 1.0 mg/kg/injection, schedule: Q01DX005 (ip), vehicle: saline); 106 % of control (dose: 2.0 mg/kg/injection, schedule: Q01DX005 (ip), vehicle: saline); 114 % of control (dose: 4.0 mg/kg/injection, schedule: Q01DX005 (ip), vehicle: saline).
Turning to `COc1ccc(C(F)C(N)C#N)cc1` (stereo not given), the T/C is 109 % of control (dose: 60.0 mg/kg/injection, schedule: Q01DX005 (ip), vehicle: saline); 98 % of control (dose: 120.0 mg/kg/injection, schedule: Q01DX005 (ip), vehicle: saline); 107 % of control (dose: 240.0 mg/kg/injection, schedule: Q01DX005 (ip), vehicle: saline).
`Cc1cc2n[se]nc2cc1C`: the T/C (dose: 6.25 mg/kg/injection, schedule: Q01DX009 (ip), vehicle: Klucel (hydroxypropylcellulose) (HPC)) was 107 % of control; the T/C (dose: 12.5 mg/kg/injection, schedule: Q01DX009 (ip), vehicle: Klucel (hydroxypropylcellulose) (HPC)) is 96 % of control; the T/C under setting [1] was 100 % of control.
Turning to `Cc1ccc(S(=O)(=O)OC2CC(C(=O)O)N(S(=O)(=O)c3ccc(C)cc3)C2)cc1` (stereo not given), the T/C is 100 % of control under setting [2], 95 % of control under setting [3] and 95 % of control under setting [4].
Consider `NC1(c2ccccc2)C2CC3CC(C2)CC1C3` (stereo not given), for which the T/C is 101 % of control (dose: 25.0 mg/kg/injection, schedule: Q04DX003 (ip), vehicle: Klucel (hydroxypropylcellulose) (HPC)); 102 % of control (dose: 50.0 mg/kg/injection, schedule: Q04DX003 (ip), vehicle: Klucel (hydroxypropylcellulose) (HPC)); 109 % of control (dose: 100.0 mg/kg/injection, schedule: Q04DX003 (ip), vehicle: Klucel (hydroxypropylcellulose) (HPC)).
As to `CCN(CC)CCCC(C)NC1CCCc2cc3c(cc21)C(=O)c1ccccc1C3=O` (stereo not given), the T/C was 98 % of control (dose: 6.25 mg/kg/injection, schedule: Q04DX003 (ip), vehicle: saline with Tween-80); 94 % of control (dose: 12.5 mg/kg/injection, schedule: Q04DX003 (ip), vehicle: saline with Tween-80); 90 % of control under setting [5].
Consider `COc1ccc(CCC#N)cc1OC`, for which the T/C was 104 % of control (dose: 25.0 mg/kg/injection, schedule: Q01DX009 (ip), vehicle: other); 105 % of control (dose: 50.0 mg/kg/injection, schedule: Q01DX009 (ip), vehicle: other); 100 % of control (dose: 100.0 mg/kg/injection, schedule: Q01DX009 (ip), vehicle: other); 110 % of control (dose: 200.0 mg/kg/injection, schedule: Q01DX009 (ip), vehicle: other).
